# Test results as given in ChEMBL document CHEMBL2380203, “Structure-activity relationship of cytochrome bc1 reductase inhibitor broad spectrum antifungal ilicicolin H” (Bioorg Med Chem Lett, 2013).
# Experiments:
# Candida albicans [1] = test: Antifungal activity against Candida albicans MY1055 assessed as growth inhibition after 24 hrs by liquid microdilution assay in presence of 10% mouse plasma; format: functional
# [2] = Inhibition of Candida albicans MY1055 NADH:cytochrome bc1 reductase
# Candida albicans [3] = test: Antifungal activity against Candida albicans MY1055 assessed as growth inhibition after 24 hrs by liquid microdilution assay; format: functional; settings: MY1055, 24 h
# [4] = Inhibition of Candida albicans MY1055 NADH:cytochrome bc1 reductase in presence of 40% mouse plasma; format: cell-free
# [5] = Inhibition of rat liver NADH:cytochrome bc1 reductase
# Candida albicans [6] = test: Ratio of IC50 for Candida albicans MY1055 NADH:cytochrome bc1 reductase in presence of 40% mouse plasma to IC50 for Candida albicans MY1055 NADH:cytochrome bc1 reductase in absence of mouse plasma
# Candida albicans [7] = test: Antifungal activity against Candida albicans MY1055 assessed as growth inhibition after 24 hrs by liquid microdilution assay in presence of 10% mouse plasma
# Candida albicans [8] = test: Ratio of MIC for Candida albicans MY1055 in presence of 10% mouse plasma to MIC for Candida albicans MY1055 in absence of mouse plasma; format: functional
# [9] = Selectivity ratio of IC50 for Candida albicans MY1055 NADH:cytochrome bc1 reductase to IC50 for rat liver NADH:cytochrome bc1 reductase
Structure (SMILES),MIC (Candida albicans [1]) [µg/mL],IC50 [2] [ng/mL],MIC (Candida albicans [3]) [µg/mL],IC50 [4] [µg/mL],IC50 [5] [ng/mL],Ratio IC50 (Candida albicans [6]),MIC (Candida albicans [7]) [µg/mL],Ratio (Candida albicans [8]),Ratio IC50 [9]
CC1=C[C@@H](C(=O)c2c(O)c(-c3ccc(O)cc3)c[nH]c2=O)[C@H]([C@@H]2OC2C)[C@H]2C[C@@H](C)CC[C@H]12 (stereo not given in full),> 1,5.2,0.625,1,1000,192,> 1,,
C/C=C/[C@@H]1[C@H]2C[C@@H](C)CC[C@@H]2C(C)=C[C@H]1C(=O)c1c(O)c(-c2ccc(OC(=O)/C=C/c3cnc[nH]3)cc2)c[nH]c1=O,1,1,0.031,0.15,8,43,,16,
C/C=C/[C@@H]1[C@H]2C[C@@H](C)CC[C@@H]2C(C)=C[C@H]1C(=O)c1c(O)c(-c2ccc(OC(=O)CCCN)cc2)c[nH]c1=O,,0.2,0.031,0.03,45,150,,,
C/C=C/[C@@H]1[C@H]2C[C@@H](C)CC[C@@H]2C(C)=C[C@H]1C(=O)c1c(O)c(-c2ccc(O)cc2)cn(CCN(CC)CC)c1=O,> 1,20,> 1,5,> 1000,250,,,
C/C=C/[C@@H]1[C@H]2C[C@@H](C)CC[C@@H]2C(C)=C[C@H]1C(=O)c1c(O)c(-c2ccc(OC(=O)CCCCN)cc2)c[nH]c1=O,,0.1,0.031,0.03,40,300,,,
C/C=C/[C@@H]1[C@H]2C[C@@H](COC(C)=O)CC[C@@H]2C(C)=C[C@H]1C(=O)c1c(O)c(-c2ccc(OC(C)=O)cc2)c[nH]c1=O,1,15,0.062,0.1,> 800,7,,8,
C/C=C/[C@@H]1[C@H]2C[C@@H](C)CC[C@@H]2C(C)=C[C@H]1C(=O)c1c(O)c(-c2ccc(OCC#N)cc2)c[nH]c1=O,,6,0.125,,1000,,,,
C/C=C/[C@@H]1[C@H]2C[C@@H](COC(=O)C3CC3)CC[C@@H]2C(C)=C[C@H]1C(=O)c1c(O)c(-c2ccc(O)cc2)c[nH]c1=O,0.25,1.2,0.0313,0.04,40,20,,8,
C/C=C/[C@@H]1[C@H]2C[C@@H](C)CC[C@@H]2C(C)=C[C@H]1C(=O)c1c(O)c(-c2ccc(OC(=O)CCCNC(=O)OC(C)(C)C)cc2)c[nH]c1=O,,4,0.125,,> 1000,,,,
C/C=C/[C@@H]1[C@H]2C[C@@H](C)CC[C@@H]2C(C)=C[C@H]1C(=O)c1c(O)c(-c2ccc(OC(=O)CNC(=O)OCC3c4ccccc4-c4ccccc43)cc2)c[nH]c1=O,,6,0.125,,1000,,,,
C/C=C/[C@@H]1[C@H]2C[C@@H](C)CC[C@@H]2C(C)=C[C@H]1C(=O)c1c(O)c(-c2ccc(O)cc2)cn(CC(=O)O)c1=O,,> 1000,> 5,,1000,,,,
C/C=C/[C@@H]1[C@H]2C[C@@H](CO)CC[C@@H]2C(C)=C[C@H]1C(=O)c1c(O)c(-c2ccc(O)cc2)c[nH]c1=O,,400,0.25,,400,,,,
C/C=C/[C@@H]1[C@H]2C[C@@H](C)CC[C@@H]2C(C)=C[C@H]1C(=O)c1c(O)c(-c2ccc(O)cc2)c[nH]c1=O [ILICICOLIN H],> 1,0.5,0.02,0.07,2000,140,,>25,> 1000
C/C=C/[C@@H]1[C@H]2C[C@@H](C)CC[C@@H]2C(C)=C[C@H]1C(=O)c1c(O)c(-c2ccc(OC(=O)C3CCCC3)cc2)c[nH]c1=O,,10,1,,> 800,,,,
